Source: patent US20100144855A1, “APPLICATION OF SEDOISOPROSAN FOR PREPARATION OF MEDICINE FOR TREATMENT OF HUMAN HBeAg POSITIVE CHRONIC HEPATITIS B” (priority 2008, published 2010)

What was measured:
[1] = animal experiments; cited from earlier work
[2] = system: lymphocytes; conditions: sedoisoprosan associated with ConA and LPS, in vitro; cited from earlier work
[3] = system: duck hepatitis B virus (DHBV); conditions: cited from earlier work
[4] = system: hepatitis B virus; test: clinical trial, curative effect in HBeAg positive chronic hepatitis B patients; type: in vivo, human
Description: The clinical trial protocol was designed according to the randomized, double-blind and controlled principle. The clinical efficacy and the safety of sedoisoprosan for therapy on human HBeAg positive chronic hepatitis B is defined according to the changes of vivo HBV-DNA level, ALT level, vital signs, blood routine indexes, blood biochemical indexes and thyroid function indexes before and after administration and the incidence of adverse events.
The clinical trials were performed on adult chronic hepatitis B patients who were HBsAg positive, HBeAg positive and HBsAb negative, with HBV-DNA levels more than 10^5 copies/ml and increased ALT.
Patients enrolled in the clinical trials must meet all the following criteria: signature of informed consent forms; age ≧18 years and ≦65 years; HBsAg positive, HBeAg positive and HBsAb negative for over 6 months; HBV-DNA level ≧10^5 copies/ml; increase in serum ALT level in 6 months before the first administration (ULN<ALT≦10×ULN for twice, wherein ALT≧2×ULN for once); negative pregnancy tests for women of child-bearing age in 24 hours before the first administration; and effective contraception measures used during the clinical trials and within 3 months after the therapy.
Since the effective doses of sedoisoprosan for reducing serum DHBV-DNA levels of ducks infected with hepatitis B virus was 200 mg/kg and 100 mg/kg (intraperitoneal injection, twice a day), doses of sedoisoprosan for the clinical trials may be between 200 mg and 800 mg (intravenous drip, once a day). […] For the purpose of the present invention, three doses of sedoisoprosan, 200 mg, 400 mg and 800 mg in 250ml 5% glucose solution (intravenous drip, within 60 mins), were used in the clinical trials.
According to the traditional treatment for chronic hepatitis B with interferon, patients enrolled in the clinical trials were administrated with sedoisoprosan once a day continuously for 4 weeks, then 3 times a week continuously for 8 weeks.
Three doses of sedoisoprosan, 200 mg, 400 mg and 800 mg respectively, were used for treatment. Mannite of 800 mg was used for negative control.
Patients enrolled in the clinical trials were randomly divided into four groups, i.e. negative control group (800 mg mannite), low dose group (200 mg sedoisoprosan with 600 mg mannite), median dose group (400 mg sedoisoprosan with 400 mg mannite) and high dose group (800 mg sedoisoprosan) respectively. Each patient was assigned with a CRF No. which was randomly generated by computer.
Baseline assessment was performed on the day of the first administration, which included medical examination, hematological examination, blood biochemical examination, thyroid function examination, ALT examination and quantitative detection of HBV-DNA. The medical examination included the examination of stature, avoirdupois, blood pressure and pulse rate. The hematological examination included the leucocyte, neutrophil, erythrocyte, platelet and haemoglobin counts, and the prothrombin time. The blood biochemical examination included the examination of serum potassium, sodium, GOT, total bilirubin, AKP, total protein, albumin, total cholesterol, triglyceride, urea nitrogen, creatinine and glucose.
The patients were followed up at the 1st, 2nd, 4th, 8th and 12th week of the treatment. The blood biochemical examination and the quantitative detection of HBV-DNA was performed at the 2nd, 4th, 8th and 12th week of the treatment, and the adverse events were recorded at the same time. The thyroid function examination was performed at the 12th week of the treatment.
The primary curative effect index was the virologic response rate at the 12th week of the treatment, i.e. the proportion of patients having HBV-DNA levels not more than 2×10^4 copies/ml or having a decline in HBV-DNA levels of 2 log10 copies/ml compared to the baseline value. […]

[5] = high dose group (800 mg sedoisoprosan), after 12 weeks' treatment
[6] = high dose group, after 12 weeks' treatment
[7] = low dose group (200 mg sedoisoprosan with 600 mg mannite), after 12 weeks' treatment
[8] = median dose group (400 mg sedoisoprosan with 400 mg mannite), after 12 weeks' treatment

CC1(C)OC2C3COC(CO)(O3)C(O)C2O1 (centres unmarked) [sedoisoprosan, isopropylidene sedoheptulosan]
activity of ACP and TNE [1]: enhance
immune system [1]: regulate
mitogenic activity of ConA and LPS [2]: enhance
transformation of lymphocytes [2]: promote
DHBV-DNA level ([3]; animal experiments): reduce
serum DHBV-DNA levels ([3]; ducks infected with hepatitis B virus, intraperitoneal 200 mg/kg or 100 mg/kg twice a day for 14 days, seventh and fourteenth day): obviously decreased
HBV-DNA levels, dose-effect relationship ([4]; 200, 400, 800 mg, after 12 weeks' treatment): tended to decrease more as the doses increased
The 12th Week Decrease Values of lg(HBV-DNA), mean ± SD ([4]; high dose group (800 mg sedoisoprosan), 16 cases): 0.96 ± 1.41
Biochemical Response Rates [4, 5]: 18.75%
Combined Response Rates [4, 5]: 6.25%
HBeAg Negative Conversion Rates [4, 5]: 6.25%
Virologic Response Rate ([4]; high dose group (800 mg sedoisoprosan), the 4th week, 16 cases): 0.00%
Virologic Response Rate ([4]; high dose group (800 mg sedoisoprosan), the 8th week, 16 cases): 12.50%
Virologic Response Rate ([4]; high dose group (800 mg sedoisoprosan), the 12th week, 16 cases): 18.75%
cases of HBeAg negative conversion [4, 6]: one
decrease values of lg(HBV-DNA), comparison within the group [4, 6]: significant differences
effect on hepatitis B virus (conclusion of the clinical trials) ([4]; human HBeAg positive chronic hepatitis B): effectively inhibit hepatitis B virus
The 12th Week Decrease Values of lg(HBV-DNA), mean ± SD ([4]; low dose group (200 mg sedoisoprosan with 600 mg mannite), 13 cases): 0.52 ± 1.28
Biochemical Response Rates [4, 7]: 6.25%
Combined Response Rates [4, 7]: 0%
HBeAg Negative Conversion Rates [4, 7]: 0%
Virologic Response Rate ([4]; low dose group (200 mg sedoisoprosan with 600 mg mannite), the 4th week, 13 cases): 15.38%
Virologic Response Rate ([4]; low dose group (200 mg sedoisoprosan with 600 mg mannite), the 8th week, 13 cases): 15.38%
Virologic Response Rate ([4]; low dose group (200 mg sedoisoprosan with 600 mg mannite), the 12th week, 13 cases): 15.38%
The 12th Week Decrease Values of lg(HBV-DNA), mean ± SD ([4]; median dose group (400 mg sedoisoprosan with 400 mg mannite), 14 cases): 0.40 ± 0.90
Biochemical Response Rates [4, 8]: 12.50%
Combined Response Rates [4, 8]: 0%
HBeAg Negative Conversion Rates [4, 8]: 0%
Virologic Response Rate ([4]; median dose group (400 mg sedoisoprosan with 400 mg mannite), the 4th week, 14 cases): 0.00%
Virologic Response Rate ([4]; median dose group (400 mg sedoisoprosan with 400 mg mannite), the 8th week, 14 cases): 0.00%
Virologic Response Rate ([4]; median dose group (400 mg sedoisoprosan with 400 mg mannite), the 12th week, 14 cases): 14.29%
decrease values of lg(HBV-DNA), comparison within the group ([4]; median dose group and low dose group, after 12 weeks' treatment): no significant differences
